Results reported in patent US6903130B1, “Pyrrolidineacetamide derivative alone or in combination for treatment of cns disorders” (UCB S.A., priority 1999, dated 2005).
Marks after values point to notes of the source that are not given here.

Key:
[1] = test system: epilepsy; details: in vivo; cited from earlier work
[2] = test system: diabetic rats (streptozocin-induced diabetic neuropathy); test: Randall and Selitto test, mechanical hyperalgesia in streptozotocin diabetic rats; format: in vivo, rat
Text: In order to study the activity of levetiracetam with respect to chronic or neuropathic pain, the Applicant carried out a series of experiments based on the Randall test “A method for measurement of analgesic activity on inflamed tissue; Arch. Int. pharmacodyn., 1957, CXI, No4. P 409-419”. By virtue of this protocol, it was possible to determine the ability of levetiracetam to correct hyperalgesia secondary to induction of a neuropathic problem of metabolic origin in a rodent.
The diabetic neuropathy thereby induced allowed the correction of the hyperalgesia caused by the use of levetiracetam to be measured.
The animals used for these experiments were male Sprague-Dawley rats (Charles River, France), weighing 250-280 grams (g), which had undergone induction of diabetes one week after receipt. Male Sprague-Dawley rats (200-220 g) received one interperitoneal injection of streptozocin (75 mg/kg, i.p.) (Zanosar, Upjohn, France) dissolved in distilled water. Hyperglycaemia was confirmed one week after induction by determining the quantity of blood glucose (caudal puncture) using a Dextrostix reactive strip (Ames) read using a calorimeter (Ames Division, Miles Laboratoires, France). Animals with more than 14 millimoles (mM) were considered to be diabetic. The pain thresholds were determined 3 weeks after induction of diabetes.
This model was used in accordance with the description in COURTEIX et al., “Streptozocin-induced diabetic rats. Behavioural evidence for a model of chronic pain” Pain (1993), vol. 53, p81-88. The study was performed using the following compounds: • […]: (Laboratories UCB), dissolved in distilled water. • CARBAMAZEPINE: (Sigma), dissolved in hydroxy propel methylcellulose.
As has already been mentioned above, the test explained below was performed to stimulate a reaction in the animal with a mechanical nociceptive stimulus to a hind paw. An increasing pressure was applied using an analgesia meter (Ugo Basile, type 7200), until a cry was emitted which was considered to be the pain threshold, expressed in grams.
After determining the base thresholds, the animals received the study treatments (vehicle, levetiracetam, 17, 54, 95.2 and 120 mg/kg, carbamazepine, 10 and 30 mg/kg) administered intraperitoneally (i.p.) using the equal block method to avoid any chronobiological influence. The effects of different treatments were thus determined during the same time period. The reaction thresholds were measured 15, 30, 45, 60, 90, 120 and 180 minutes (min) after administration. All of the experiments were performed blind with 8 different animals per treatment.
The results are expressed as means±standard error of mean (S.E.M.).
The dose which could overcome 50% of the hyperalgesia induced by diabetes was calculated as the “anti-hyperalgesic dose effective 50”.
Statistical comparison was carried out by means of a two-way analysis of variance followed by Fischer's PLSD multiple comparison test to analyze the temporal effect.

[3] = test system: sound-sensitive mice; test: Rotarod test in sound-sensitive mice; details: combined treatment with 5.5 mg/kg levetiracetam
[4] = Plasma and brain levels after oral dosing in sound-sensitive mice; details: alone or in combination with levetiracetam
Procedure: Male genetically sound-sensitive mice (17-30 g; N=10), derived from a DBA strain originally selected by Dr Lehmann of the Laboratory of Acoustic Physiology (Paris) and bred in the UCB Pharma Sector husbandry unit since 1978, were submitted to the induction of audiogenic seizures. Levetiracetam (5.4 mg/kg) and sodium valproate (166.2 mg/kg) were administered orally, alone or in combination, 60 minutes before the induction of audiogenic seizures. For testing audiogenic seizure, the mice were placed in the cages, one mouse per cage, in the sound-attenuated chamber. After a period of habituation of 30 seconds, the acoustic stimulus (90 dB, 10-20 kHz) was delivered for 30 seconds via the loud speakers. During this interval, the mice were observed and the presence of the 3 phases of the seizure activity, namely wild running, clonic and tonic convulsions, was recorded.
In all animals, blood samples were collected immediately after the seizure test (I h after dosing) by cardiac puncture under light carbon dioxide anesthesia, into heparinised microtubes. […] Levetiracetam was measured in plasma and brain samples by validated gas chromatography assay with mass detection. With sodium valproate, fluorescence polarization immunoassays were used.
The mean value plus standard deviation was calculated for plasma and brain concentrations of valproate and levetiracetam, and for the brain/plasma ratio. […]

CC[C@H](C(N)=O)N1CCCC1=O [(R)-(−)-α-ethyl-2-oxo-1-pyrrolidine-acetamide]
activity in the treatment of epilepsy (in words) [1]: completely devoid of activity

NC(=O)N1c2ccccc2C=Cc2ccccc21 [Carbamazepine, reference compound]
vocalization threshold ([2]; carbamazepine 10 mg/kg i.p. group, before diabetes (baseline), mean (SEM)): 300.9 (12.31) g
vocalization threshold ([2]; carbamazepine 10 mg/kg i.p., 15 min after injection): 217.5 g
vocalization threshold ([2]; carbamazepine 10 mg/kg i.p., 30 min after injection): 333.8 (14.66)* g
vocalization threshold ([2]; carbamazepine 10 mg/kg i.p., 45 min after injection): 273.8 g
vocalization threshold ([2]; carbamazepine 10 mg/kg i.p., 60 min after injection): 206.3 (10.51)* g
vocalization threshold ([2]; carbamazepine 10 mg/kg i.p., 90 min after injection): 187.5 (8.02) g
vocalization threshold ([2]; carbamazepine 10 mg/kg i.p., 120 min after injection): 174.4 (3.95) g
vocalization threshold ([2]; carbamazepine 10 mg/kg i.p., 180 min after injection): 174.4 (3.95) g
vocalization threshold ([2]; carbamazepine 10 mg/kg i.p., after diabetes, 0 min (base threshold)): 170.6 (5.26) g
vocalization threshold ([2]; carbamazepine 30 mg/kg i.p. group, before diabetes (baseline), mean (SEM)): 280.3 (9.92) g
vocalization threshold ([2]; carbamazepine 30 mg/kg i.p., 15 min after injection): 450.0 g
vocalization threshold ([2]; carbamazepine 30 mg/kg i.p., 30 min after injection): 425.6 (39.98)* g
vocalization threshold ([2]; carbamazepine 30 mg/kg i.p., 45 min after injection): 311.3 g
vocalization threshold ([2]; carbamazepine 30 mg/kg i.p., 60 min after injection): 230.6 (24.86)* g
vocalization threshold ([2]; carbamazepine 30 mg/kg i.p., 90 min after injection): 196.9 g
vocalization threshold ([2]; carbamazepine 30 mg/kg i.p., 120 min after injection): 174.4 (7.99) g
vocalization threshold ([2]; carbamazepine 30 mg/kg i.p., 180 min after injection): 170.6 (6.30) g
vocalization threshold ([2]; carbamazepine 30 mg/kg i.p., after diabetes, 0 min (base threshold)): 152.8 (8.01) g
spontaneous motor activity (not quantified) ([2]; carbamazepine 30 mg/kg i.p., delayed effect, 30 min after injection): reduction in spontaneous motor activity
Effect on diabetic hyperalgesia (in words) ([2]; i.p., diabetic rats): complete reversal of diabetic hyperalgesia for the 2 doses used

CNC1=Nc2ccc(Cl)cc2C(c2ccccc2)=[N+]([O-])C1 [chlordiazepoxide]
impairment of rotarod performance under combined treatment (in words) [3]: not affected

O=C1CN=C(c2ccccc2Cl)c2cc([N+](=O)[O-])ccc2N1 [clonazepam]
impairment of rotarod performance under combined treatment (in words) [3]: not affected

CCC1(c2ccccc2)C(=O)NC(=O)NC1=O [phenobarbital, reference compound]
plasma concentrations and brain/plasma ratio alone vs in combination with levetiracetam (in words) [4]: unchanged
impairment of rotarod performance under combined treatment (in words) [3]: not affected
